Data: publication PMC6937582, “Human leukocyte antigen (HLA) class II peptide flanking residues tune the immunogenicity of a human tumor-derived epitope” (The Journal of Biological Chemistry, 2019)
Where two headings read alike, the source gives them in different places. No end group written: not given here.

Target: T1, HLA-DR1 (Homo sapiens, UniProt P01903+P01911, A100R/D57E/F55L/F60I/F76Y/I96L/L162R/M171V/P40L/Q125E/R42F/V115G/Y59C)
T1 construct: DRα*0101 (Uniprot: P01903, residues 26–207); HLA-DRβ1*0101 (Uniprot: P04229, residues 30–219); made in house
Experiment: HLA-DR1 competitive peptide-binding assay

[1] = Fig. 5 B,D,F,H,J, truncated/substituted 5T4_111–130 peptides, competition with biotinylated CLIP99–117, pH 5, overnight 37 °C, representative of two experiments in triplicate, read-out: HLA-DR1 binding (IC50)
[2] = Fig. 2B, competition with 4.5 nM biotinylated CLIP99–117 marker peptide on refolded HLA-DR1-CLIP105–117, pH 5, overnight 37 °C, ELISA read-out, triplicate, four-parameter curve fit, read-out: HLA-DR1 binding IC50

IC50 [1] [nM]	IC50 [2] [nM]	Sequence	IC50 (HLA-DR1 binding (IC50)) [nM]
136	176	FARRPPLAELAALNLSGSRL [5T4_111–130]	–
360	–	FARRPPLAELAALNLS	–
–	535	AGDGRLRLARLALVLLGWVS [5T4_11–30]	–

The remaining lines, values behind:

Sequence	IC50 [1] [nM]	IC50 [2] [nM]	IC50 (HLA-DR1 binding (IC50)) [nM]
FARRPPLAELAALNLSGS	103	–	–
RRPPLAELAALNLSGSRL	417	–	–
FARRPPLAELAAANLSGSRL	725	–	–
FARRPPLAELAALALSGSRL	–	–	144
LAELAALNL	5140	–	–
PPLAELAALNLSGSRL	231	–	–
FARRPPLAELAALNLSRSRL	255	–	–
